Source: EP1800684A1, “Novel alkyl phospholipid derivatives and uses thereof” (Zentaris GmbH, priority 2005, dated 2007)

System: Plasmodium falciparum (strain K1)
Test: In vitro drug susceptibility assay, protozoon C (3[H]-hypoxanthine method)
Type: cell-based
Experimental: Plasmodium falciparum strain K1 and strain 3D7 parasites were cultured according to Trager W and Jensen JB (Science 1976, 193: 673-675). In vitro drug susceptibility assays with the test compounds were carried out according to Korsinczky M et al. (Antimicrobial agents and chemotherapy 2000, 44(8): 2100-2108) and Fivelman QL et al. (Antimicrobial agents and chemotherapy 2004, 48(11): 4097-4102) using a ^3[H]-hypoxanthine radioisotope method. ED50 values were calculated with Msxlfit (IDBS).
The following protozoa were assessed: • A) Trypanosoma cruzi (Tulahuan-LACZ amstigotes in PEM, Lorente SO et al., Antimicrobial agents and chemotherapy 2004, 48(8): 2937-2950; Buckner et al., Infection and Immunity 1999, 67(1): 403-409; Buckner et al., Antimicrobial Agents and Chemotherapy 1996, 40(11): 2592-2597) • B) Trypanosoma brucei rhodesiense (strain STIB900, Lorente SO et al., Antimicrobial agents and chemotherapy 2004, 48(8): 2937-2950; Habtemariam S, BMC Pharmacology 2003, 3:6) • C) Plasmodium falciparum (strain K1, Korsinczky M et al., Antimicrobial agents and chemotherapy 2000, 44(8): 2100-2108; Thaitong S and Beale GH, Trans. R. Soc. Trop. Med. Hyg. 1981, 75: 271-273; Trager W and Jensen JB, Science 1976, 193: 673-675) • D) Plasmodium falciparum (strain 3D7, Mu et al., PLoS Biology 2005, 3(10): e335)

## CCCCCCCCCCCCCCCCOP(=O)([O-])OCC[N+]1(C)CCCCC1 [Compound 2, Phosphoric acid 2-(1-methyl-piperidin-1-yl)-ethyl ester hexadecyl ester]
  ED50 (µg/mL): 19,36 µg/mL
